Data reported in patent US4483794A, “Analogs of neurohypophysial hormones” (Ceskoslovenska akademie ved, priority 1983, dated 1984).
*1 amine or outer side, *2 acyl side, *3 side chain or, on linkers, in order; H or OH if unused. Where a SMILES comes first, the peptide text is derived from it. Bridges are numbered along the chain shown (N, C = ends). [ ]: non-standard residue; d: D form. dPhe(4-Et) = CCc1ccc(C[C@@H](N)C(=O)O)cc1; dPhe(4-Me) = Cc1ccc(C[C@@H](N)C(=O)O)cc1; hCys = N[C@@H](CCS)C(=O)O; X1 = O=C(CC[*:2])[*:1]

Key:
[1] = target: T1, isolated rat uterus (Rattus norvegicus, UniProt P70536); assay: pA2 values as tested with an isolated rat uterus (oxytocin as agonist); type: cell-based; conditions: negative decadic logarithm of an inhibitory constant
T1 construct: isolated rat uterus; from tissue; host or cells: isolated rat uterus
T1 sequence (P70536 1-388): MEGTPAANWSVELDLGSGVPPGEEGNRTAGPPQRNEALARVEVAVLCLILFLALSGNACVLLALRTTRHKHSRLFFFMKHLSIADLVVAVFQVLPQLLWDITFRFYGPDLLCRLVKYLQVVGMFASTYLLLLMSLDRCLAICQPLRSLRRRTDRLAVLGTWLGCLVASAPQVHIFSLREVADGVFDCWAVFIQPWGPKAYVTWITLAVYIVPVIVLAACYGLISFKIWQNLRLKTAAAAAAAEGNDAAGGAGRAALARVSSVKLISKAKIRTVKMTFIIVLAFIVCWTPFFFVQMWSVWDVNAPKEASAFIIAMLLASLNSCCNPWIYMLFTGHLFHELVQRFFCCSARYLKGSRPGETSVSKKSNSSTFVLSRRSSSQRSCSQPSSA
Text: Each of the above-identified analogs evidenced strong inhibitory effects. Table I, set forth below, set forth numerical values of the biological activity of these analogs wherein pA2 represents the negative decadic logarithm of an inhibitory constant in accordance with the equation [formula] wherein B is the concentration of the inhibitor in moles per liter, A50 is the concentration of an agonistic compound (oxytocin) which results in 50% of the maximum effect, and A50B is the concentration of an agonistic compound yielding 50% of the maximum effect in the presence of an inhibitor of concentration B (Eggena P., Schwartz I. L., and Walter R.: J. Gen. Physiol. 52, 465 (1968).
pA2 values as tested with an isolated rat uterus

[2] = target: T2, biological effect of vasopressin (blood pressure) (Rattus norvegicus, UniProt P30560); assay: suppression of the biological effect of vasopressin, i.e. of blood pressure in a despinalized rat; conditions: in vivo, blood volume 6.7 ml/100g of rat weight assumed
T2 construct: blood pressure in a despinalized rat; from tissue; host or cells: despinalized rat in vivo (vasculature)
T2 sequence (P30560 whole entry): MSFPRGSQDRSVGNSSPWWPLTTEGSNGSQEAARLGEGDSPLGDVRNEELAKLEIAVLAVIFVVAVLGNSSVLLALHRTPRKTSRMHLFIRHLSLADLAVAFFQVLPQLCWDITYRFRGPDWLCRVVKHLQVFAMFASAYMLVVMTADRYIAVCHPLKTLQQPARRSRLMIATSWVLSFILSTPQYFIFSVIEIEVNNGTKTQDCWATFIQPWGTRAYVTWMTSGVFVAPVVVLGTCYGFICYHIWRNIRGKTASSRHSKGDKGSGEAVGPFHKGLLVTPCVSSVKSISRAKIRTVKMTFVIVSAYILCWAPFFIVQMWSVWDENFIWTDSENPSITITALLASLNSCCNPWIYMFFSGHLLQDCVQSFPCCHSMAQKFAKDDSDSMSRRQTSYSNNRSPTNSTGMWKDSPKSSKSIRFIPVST
Procedure: ^(a) the negative decadic logarithm of the analog concentration which
leads to suppression of the biological effect of vasopressin (i.e. of
blood pressure in a despinalized rat) to 50% of the original response; th
blood volume of rat (6.7 ml/100g of rat weight) is assumed in the in vivo
test (Nestor J. J., Ferger M. F., du Vigneaud V.: J. Med. Chem. 18, 284

[3] = system: uterotonic activity of oxytocin; assay: inhibitory effect toward the uterotonic activity of oxytocin in the in vivo test with a uterus; conditions: compared with the equipotential dose of [2D-p-ethylphenylalanine] oxytocin
Text: uterotonic activity of oxytocin in the in vivo test with a uterus as
compared with the equipotential dose of the compound ([
2D-p-ethylphenylalanine] oxytocin).

[4] = system: uterotonic and pressor activity of natural hormones; assay: inhibitory effects of the analogs toward natural hormones (general statements); conditions: in words

Kb [1] [nM]	SMILES	also measured
5.5	CC[C@H](C)[C@@H]1NC(=O)[C@@H](Cc2ccccc2)NC(=O)CCSCC[C@@H](C(=O)N2CCC[C@H]2C(=O)N[C@@H](CC(C)C)C(=O)NCC(N)=O)NC(=O)[C@H](CC(N)=O)NC(=O)[C@H](CCC(N)=O)NC1=O [Ia, [2-D-Phenylalanine]deamino-6-carba-oxytocin] (HELM PEPTIDE1{[dF].I.Q.N.[O=C([C@H](CCS[*:3])N[*:1])[*:2]].P.L.G.[am]}|CHEM1{[O=C(CC[*:2])[*:1]]}$PEPTIDE1,CHEM1,1:R1-1:R1|PEPTIDE1,CHEM1,5:R3-1:R2$$$V2.0)	
28.8	CCOc1ccc(C[C@H]2NC(=O)CCSCC[C@@H](C(=O)N3CCC[C@H]3C(=O)N[C@@H](CC(C)C)C(=O)NCC(N)=O)NC(=O)[C@H](CC(N)=O)NC(=O)[C@H](CCC(N)=O)NC(=O)[C@H]([C@@H](C)CC)NC2=O)cc1 [Ib, [2-D-o-Ethyltyrosine]deamino-6-carba-oxytocin] ([dY](Et)IQN[hCys]PLG-NH2; linker N-5 via X1)	
1.86	CC[C@H](C)[C@@H]1NC(=O)[C@@H](Cc2ccc(C)cc2)NC(=O)CCSCC[C@@H](C(=O)N2CCC[C@H]2C(=O)N[C@@H](CC(C)C)C(=O)NCC(N)=O)NC(=O)[C@H](CC(N)=O)NC(=O)[C@H](CCC(N)=O)NC1=O [Ic, [2-D-p-Methylphenylalanine]deamino-6-carba-oxytocin] ([dPhe(4-Me)]IQN[hCys]PLG-NH2; linker N-5 via X1)	
1.86	CCc1ccc(C[C@H]2NC(=O)CCSCC[C@@H](C(=O)N3CCC[C@H]3C(=O)N[C@@H](CC(C)C)C(=O)NCC(N)=O)NC(=O)[C@H](CC(N)=O)NC(=O)[C@H](CCC(N)=O)NC(=O)[C@H]([C@@H](C)CC)NC2=O)cc1 [Id, [2-D-p-Ethylphenylalanine]deamino-6-carba-oxytocin] ([dPhe(4-Et)]IQN[hCys]PLG-NH2; linker N-5 via X1)	
	CCc1ccc(C[C@H]2NC(=O)CCSSC[C@@H](C(=O)N3CCC[C@H]3C(=O)N[C@@H](CC(C)C)C(=O)NCC(N)=O)NC(=O)[C@H](CC(N)=O)NC(=O)[C@H](CCC(N)=O)NC(=O)[C@H]([C@@H](C)CC)NC2=O)cc1 [Ie, [2-D-p-Ethylphenylalanine]deamino-oxytocin] (HELM PEPTIDE1{[O=C(CCS[*:3])[*:2]].[CCc1ccc(C[C@@H](N[*:1])C(=O)[*:2])cc1].I.Q.N.C.P.L.G.[am]}$PEPTIDE1,PEPTIDE1,1:R3-6:R3$$$V2.0)	pA2 [1]: 8.06
	CCc1ccc(C[C@H]2NC(=O)[C@@H](N)CSSC[C@@H](C(=O)N3CCC[C@H]3C(=O)N[C@@H](CCCCN)C(=O)NCC(N)=O)NC(=O)[C@H](CC(N)=O)NC(=O)[C@H](CCC(N)=O)NC(=O)[C@H](Cc3ccccc3)NC2=O)cc1 [Ih, [2-D-p-Ethylphenylalanine, 8-lysine]vasopressin] (HELM PEPTIDE1{C.[CCc1ccc(C[C@@H](N[*:1])C(=O)[*:2])cc1].F.Q.N.C.P.K.G.[am]}$PEPTIDE1,PEPTIDE1,1:R3-6:R3$$$V2.0)	pA2 (negative decadic logarithm of the analog concentration which leads to suppression of the biological effect of vasopressin to 50% of the original response) [2]: 7.05
1.58	CC[C@H](C)[C@@H]1NC(=O)[C@@H](Cc2ccc(C)cc2)NC(=O)CCSCC[C@@H](C(=O)N2CCC[C@H]2C(=O)N[C@@H](CC(C)C)C(=O)O)NC(=O)[C@H](CC(N)=O)NC(=O)[C@H](CCC(N)=O)NC1=O [Ij, [2-D-p-methylphenylalanine, 9-desglycinamide]deamino-6-carbaoxytocin] ([dPhe(4-Me)]IQN[hCys]PL-OH; linker N-5 via X1)	inhibitory effect [4]: retained

SMILES	Kb [1] [nM]	also measured
CCc1ccc(C[C@H]2NC(=O)[C@@H](N)CSSC[C@@H](C(=O)N3CCC[C@H]3C(=O)N[C@@H](CC(C)C)C(=O)NCC(N)=O)NC(=O)[C@H](CC(N)=O)NC(=O)[C@H](CCC(N)=O)NC(=O)[C@H]([C@@H](C)CC)NC2=O)cc1 [If, [2-D-p-Ethylphenylalanine]oxytocin] (HELM PEPTIDE1{C.[CCc1ccc(C[C@@H](N[*:1])C(=O)[*:2])cc1].I.Q.N.C.P.L.G.[am]}$PEPTIDE1,PEPTIDE1,1:R3-6:R3$$$V2.0)	7.08	
CCc1ccc(C[C@H]2NC(=O)[C@@H](N)C(C)(C)SSC[C@@H](C(=O)N3CCC[C@H]3C(=O)N[C@@H](CC(C)C)C(=O)NCC(N)=O)NC(=O)[C@H](CC(N)=O)NC(=O)[C@H](CCC(N)=O)NC(=O)[C@H]([C@@H](C)CC)NC2=O)cc1 [Ig, [1-Penicilamine, 2-D-p-ethylphenylalanine]oxytocin] (HELM PEPTIDE1{[Pen].[CCc1ccc(C[C@@H](N[*:1])C(=O)[*:2])cc1].I.Q.N.C.P.L.G.[am]}$PEPTIDE1,PEPTIDE1,1:R3-6:R3$$$V2.0)	8.13	
CCc1ccc(C[C@H]2NC(=O)[C@@H](NC(=O)CNC(=O)CNC(=O)CN)CSSC[C@@H](C(=O)N3CCC[C@H]3C(=O)N[C@@H](CC(C)C)C(=O)NCC(N)=O)NC(=O)[C@H](CC(N)=O)NC(=O)[C@H](CCC(N)=O)NC(=O)[C@H]([C@@H](C)CC)NC2=O)cc1 [Ii, N^δ -Glycyl-glycyl-glycyl[2-D-p-ethylphenylalanine]oxytocin] (HELM PEPTIDE1{G.G.G.C.[CCc1ccc(C[C@@H](N[*:1])C(=O)[*:2])cc1].I.Q.N.C.P.L.G.[am]}$PEPTIDE1,PEPTIDE1,4:R3-9:R3$$$V2.0)	724	inhibitory effect toward the uterotonic activity of oxytocin, duration [3]: prolonged inhibitory effect
